Common to all, as to experiment: NCI tumour cell line growth inhibition, 48 h
For test [1], the system named is DU-145.
Test [2] deals with Hs-578T.
Test [3] concerns MCF7.
Test [4] concerns NCI/ADR-RES.

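All cell lines were grown in 96-well plates and treated with compound for 48 hours. GI50 is the concentration that inhibits growth by half.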 Active and inactive are the calls of the source. No stated cut-off is given here; in the data, active = GI50 up to about 1.1 µM and inactive = higher. Some results are limits rather than exact numbers.

Turning to `CC1C2(C)OCC(C#N)(C(=N)O2)C1(C#N)C#N` (centres undefined), the GI50 in test [1] was 22.5 µM (inactive); in test [2], 17.9 µM (inactive); in test [3] it was 20.7 µM (inactive); in test [4], 41.2 µM (inactive).

As for `CCCc1cc(COC)c(C#N)c(O)n1`, the GI50 in test [1], in test [2], in test [3] and in test [4] was > 100 µM (inactive) each time.

As to `Oc1ccc(-c2ccccc2)nn1`, the GI50 in test [1], in test [2] and in test [4] was > 100 µM (inactive) throughout.

With `CC(C)(C)c1c2c(c(C(C)(C)C)c3c1OCN(Cc1ccccc1)C3)OCN(Cc1ccccc1)C2`, the GI50 is 22.6 µM (inactive) in test [1], 20.4 µM (inactive) in test [2], 11 µM (inactive) in test [3] and 19.6 µM (inactive) in test [4].

Take `CCOC(=O)CCC(NC(=O)c1ccc(Nc2nc3ccccc3nc2C(=O)OCC)cc1)C(=O)OCC` (centres undefined): the GI50 in test [2] is 3.1 µM (inactive); in test [3], 11.3 µM (inactive); in test [4] it was 5.46 µM (inactive).

With `CCOC(=O)c1c(Br)c(-c2ccc(OC)cc2)c(Br)n1C`, the GI50 in test [1] is 32.2 µM (inactive); in test [2], 11.6 µM (inactive); in test [3] it was 8.39 µM (inactive); in test [4], 5.18 µM (inactive).

As to `C=CCC1(Sc2ccccn2)Sc2ccc3ccccc3c2-c2c(ccc3ccccc23)S1`, the GI50 in test [1], in test [2], in test [3] and in test [4] was > 100 µM (inactive) each time.

With `CCC1([N+](=O)[O-])CC2C=CC1C2` (centres undefined), the GI50 in test [1], in test [2], in test [3] and in test [4] was > 100 µM (inactive) each time.

Take `COc1ccc(CCCNC(=O)Cc2cc(OC)c(OC)cc2CO)cc1OC`: the GI50 in test [1], in test [2] and in test [4] was > 100 µM (inactive) throughout.

With `CCOP(=O)(Nc1ccc(-c2ccccc2)cc1)OCC`, the GI50 in test [1], in test [2], in test [3] and in test [4] was > 100 µM (inactive) each time.

With `O=c1[nH]c2cc(C(F)(F)F)ccc2nc1Cc1ccccc1`, the GI50 in test [1] is > 100 µM (inactive); in test [2], 34.9 µM (inactive); in test [3], > 100 µM (inactive); in test [4] it was 67 µM (inactive).

Regarding `Cc1cn(C2CC(O)C(Cn3cc(Cn4ncc(=O)[nH]c4=O)nn3)O2)c(=O)[nH]c1=O` (centres undefined), the GI50 in test [1], in test [2], in test [3] and in test [4] was > 100 µM (inactive) each time.

For the compound `N#CC1C(=O)N(c2ccccc2)NC12OC(=O)c1ccncc12` (centres undefined), the GI50 in test [1], in test [3] and in test [4] was > 20 µM (inactive) in each case.

For `COc1cc(/C=C2\N=C(C)N(n3c(-c4ccccc4)nc4ccccc4c3=O)C2=O)cc(OC)c1OC`, the GI50 in test [1], in test [2] and in test [3] was > 100 µM (inactive) throughout.

`CCOC(=O)C1=C(C(=O)c2ccc(C)cc2)C(c2cccc([N+](=O)[O-])c2)C(C(=O)c2ccc(C)cc2)=C(C(=O)OCC)N1`: the GI50 in test [1] was 16.8 µM (inactive); in test [2] it was 22 µM (inactive); in test [3], 16 µM (inactive); in test [4], 18.2 µM (inactive).

For the compound `O=C(NCc1ccccc1)c1cc2ccccc2o/c1=N\c1ccccc1F`, the GI50 in test [1] was 29.7 µM (inactive); in test [2], 32.1 µM (inactive); in test [3], 33.7 µM (inactive); in test [4], 46.7 µM (inactive).

For the compound `Cc1csc2nc3c(cnn3C)c(=S)n12`, the GI50 in test [2] was 12.8 µM (inactive); in test [3] it was > 100 µM (inactive); in test [4] it was > 100 µM (inactive).

As to `CC(C)NC(=O)OCCN=C1c2ccccc2C(Br)C(Br)c2ccccc21` (centres undefined), the GI50 in test [1] was 6.98 µM (inactive); in test [2] it was 8.41 µM (inactive); in test [3], 12.1 µM (inactive); in test [4] it was 16 µM (inactive).

For `COc1cc(C2CC(C)(Nc3ccccc3)Oc3cc4c(cc32)OCO4)cc(OC)c1OC` (centres undefined), the GI50 is 0.352 µM (active) in test [1], 0.105 µM (active) in test [2], 0.135 µM (active) in test [3] and 0.277 µM (active) in test [4].

In the case of `CCc1nc(N)nc(N)c1-c1ccc2nnn(O)c2c1`, the GI50 in test [1], in test [2], in test [3] and in test [4] was > 100 µM (inactive) throughout.

Consider `NC1=CN(Cc2ccccc2)C2=N/C(=C\c3ccccc3)C(=O)N12`, for which the GI50 in test [1], in test [2], in test [3] and in test [4] was > 100 µM (inactive) throughout.

On to `Cc1coc2c1C(OC(=O)C(C)C)C1(C)C(C)CCC(O)C1C2=O` (centres undefined), for which the GI50 in test [1] is > 100 µM (inactive); in test [2], > 100 µM (inactive); in test [3], 98.2 µM (inactive); in test [4] it was > 100 µM (inactive).

On to `CN1CN(c2ccccc2)C2(CCN(CCc3csc4ccccc34)CC2)C1=O`, for which the values for the GI50 in test [1], in test [3] and in test [4] were 18.7 µM (inactive), 13.3 µM (inactive) and 13.8 µM (inactive), respectively.

For the compound `O=c1c2ccccc2c2c1c1c3ccccc3c(=O)c1c1c3ccccc3c(=O)c21`, the GI50 in test [1], in test [2], in test [3] and in test [4] was > 100 µM (inactive) throughout.

On to `COc1ccc(/N=N/c2c(C)c(C#N)c(=S)n(C3OC(COC(C)=O)C(OC(C)=O)C(OC(C)=O)C3OC(C)=O)c2-c2ccccc2)cc1` (centres undefined), for which the GI50 in test [1] is 7.03 µM (inactive); in test [3], 4.62 µM (inactive); in test [4], 3.39 µM (inactive).

For the compound `N#CC(c1ccccc1)N(CCc1ccccc1)C(=O)c1ccccc1` (centres undefined), the GI50 was > 100 µM (inactive) in test [1], 26.2 µM (inactive) in test [2], > 100 µM (inactive) in test [3] and 42.9 µM (inactive) in test [4].

For the compound `Cc1ccc(S(=O)(=O)N2CCSCCSCCSCCN(S(=O)(=O)c3ccc(C)cc3)CC2)cc1`, the GI50 in test [1], in test [2], in test [3] and in test [4] was > 100 µM (inactive) throughout.

Turning to `CCOC(=O)c1nc2c3c(ncn2n1)Oc1c(c(-c2ccccc2)nn1-c1ccccc1)C3c1ccc(OC)c(OC)c1` (centres undefined), the GI50 in test [1] was > 100 µM (inactive); in test [2] it was 12.4 µM (inactive); in test [3], > 100 µM (inactive); in test [4], 57.7 µM (inactive).

Take `O=S(=O)(CCC[C@H]1[C@@H](CCOCc2ccccc2)C2CCCN1O2)c1ccccc1` (some centres undefined): the GI50 in test [2], in test [3] and in test [4] was > 100 µM (inactive) throughout.

Turning to `COc1ccc(CCNC2=CC(=O)c3ncccc3C2=O)cc1OC`, the GI50 is 1.67 µM (inactive) in test [1], 1.19 µM (inactive) in test [2], 1.38 µM (inactive) in test [3] and 2.28 µM (inactive) in test [4].

As for `COc1ccc([C@H]2CC(=O)C[C@H](c3ccc(OC)cc3)C23C(=O)c2ccccc2C3=O)cc1`, the GI50 was 16.4 µM (inactive) in test [1], 4.78 µM (inactive) in test [2], 7.06 µM (inactive) in test [3] and 1.94 µM (inactive) in test [4].

On to `COC(=O)c1ccccc1C1CN=NC12Cc1cccc(C)c1C2=O` (centres undefined), for which the GI50 in test [1] is > 100 µM (inactive); in test [2], 40.4 µM (inactive); in test [3], 43 µM (inactive); in test [4] it was 9.84 µM (inactive).

`COc1ccc2c(c1)C1Oc3ccccc3CC1(O)CO2` (centres undefined): the GI50 in test [1], in test [3] and in test [4] was > 100 µM (inactive) in each case.

Turning to `COc1ccc2c3c1O[C@H]1C(=O)C=CC4(n5[nH]c(=O)n(-c6ccccc6)c5=O)C(C2)N(C)CCC314` (some centres undefined), the GI50 in test [1], in test [2], in test [3] and in test [4] was > 100 µM (inactive) throughout.

`CCOC(=O)c1cccc(/N=N/c2ncc(/C=C/C(=O)OC)[nH]2)c1`: the GI50 in test [1] was 19.1 µM (inactive); in test [2], 39.9 µM (inactive); in test [3], 21.6 µM (inactive); in test [4] it was 22 µM (inactive).

Turning to `Cc1nnc(N)nc1/C=C\c1ccc(N(C)C)cc1`, the GI50 in test [1] is > 66.2 µM (inactive); in test [2], 5.82 µM (inactive); in test [3] it was 3.85 µM (inactive); in test [4], 12.4 µM (inactive).

As for `COC(=O)C(=O)CC(=O)c1cccc(OC)c1`, the GI50 in test [1], in test [2], in test [3] and in test [4] was > 100 µM (inactive) throughout.

Turning to `COc1ccc2c(c1)/C(=C(\C(Cl)=C(Cl)Cl)[N+](=O)[O-])N2`, the GI50 in test [1] is > 100 µM (inactive); in test [2], 80.2 µM (inactive); in test [3], > 100 µM (inactive); in test [4], 79.8 µM (inactive).

For `CS/C(=N\C#N)NC1CC(n2cc(C)c(=O)[nH]c2=O)OC1CO` (centres undefined), the GI50 in test [1], in test [3] and in test [4] was > 100 µM (inactive) each time.

With `O=C([O-])C(O)C(O)C(O)C(O)C(=O)O.[K+]` (centres undefined), the GI50 in test [1], in test [3] and in test [4] was > 100 µM (inactive) throughout.

For `C[N+]1(C)C(c2ccccc2)C(=O)O[B@-]1(F)c1ccccc1` (some centres undefined), the GI50 in test [1], in test [3] and in test [4] was > 100 µM (inactive) in each case.

For the compound `CN(C)CC[N+](C)(C)[BH2-]C(O)O`, the GI50 in test [1], in test [2], in test [3] and in test [4] was > 100 µM (inactive) in each case.

As for `O=C1/C(=C/c2ccc([N+](=O)[O-])cc2)CNC/C1=C\c1ccc([N+](=O)[O-])cc1`, the GI50 is 10.8 µM (inactive) in test [1], 4.36 µM (inactive) in test [2], 2.74 µM (inactive) in test [3] and 5.09 µM (inactive) in test [4].

Values taken from ChEMBL document CHEMBL1201862, “PubChem BioAssay data set” (2004).
